Key:
EGFR kinase = EGFR kinase (Homo sapiens, UniProt P00533); assay: Enzymatic experiment on EGFR (HTRF kinEASE-TK); format: biochemical; conditions: ATP 1.65 μM; read-out: Kinase IC50 (nM) in vitro EGFR
Method in brief: (§1)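 HTRF kinEASE-TK with biotinylated TK substrate in HEPES pH 7.0 buffer containing MnCl2, MgCl2 and DTT; ErbB2 at 0.06 ng/μl with 4 μM ATP, EGFR at 0.06 units/μl with 1.65 μM ATP, 30 min at room temperature after 5 min enzyme/substrate–compound preincubation. Ten-point 3-fold dilutions; Eu antibody/SA-XL665 detection, 665/620 ratio.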

ErbB2 kinase = ErbB2 kinase (Homo sapiens, UniProt P04626); assay: Enzymatic experiment on ErbB2 (HTRF kinEASE-TK); format: biochemical; conditions: ATP 4 μM; read-out: Kinase IC50 (nM) in vitro ErbB2
Sequence of ErbB2 kinase (P04626 23-1255): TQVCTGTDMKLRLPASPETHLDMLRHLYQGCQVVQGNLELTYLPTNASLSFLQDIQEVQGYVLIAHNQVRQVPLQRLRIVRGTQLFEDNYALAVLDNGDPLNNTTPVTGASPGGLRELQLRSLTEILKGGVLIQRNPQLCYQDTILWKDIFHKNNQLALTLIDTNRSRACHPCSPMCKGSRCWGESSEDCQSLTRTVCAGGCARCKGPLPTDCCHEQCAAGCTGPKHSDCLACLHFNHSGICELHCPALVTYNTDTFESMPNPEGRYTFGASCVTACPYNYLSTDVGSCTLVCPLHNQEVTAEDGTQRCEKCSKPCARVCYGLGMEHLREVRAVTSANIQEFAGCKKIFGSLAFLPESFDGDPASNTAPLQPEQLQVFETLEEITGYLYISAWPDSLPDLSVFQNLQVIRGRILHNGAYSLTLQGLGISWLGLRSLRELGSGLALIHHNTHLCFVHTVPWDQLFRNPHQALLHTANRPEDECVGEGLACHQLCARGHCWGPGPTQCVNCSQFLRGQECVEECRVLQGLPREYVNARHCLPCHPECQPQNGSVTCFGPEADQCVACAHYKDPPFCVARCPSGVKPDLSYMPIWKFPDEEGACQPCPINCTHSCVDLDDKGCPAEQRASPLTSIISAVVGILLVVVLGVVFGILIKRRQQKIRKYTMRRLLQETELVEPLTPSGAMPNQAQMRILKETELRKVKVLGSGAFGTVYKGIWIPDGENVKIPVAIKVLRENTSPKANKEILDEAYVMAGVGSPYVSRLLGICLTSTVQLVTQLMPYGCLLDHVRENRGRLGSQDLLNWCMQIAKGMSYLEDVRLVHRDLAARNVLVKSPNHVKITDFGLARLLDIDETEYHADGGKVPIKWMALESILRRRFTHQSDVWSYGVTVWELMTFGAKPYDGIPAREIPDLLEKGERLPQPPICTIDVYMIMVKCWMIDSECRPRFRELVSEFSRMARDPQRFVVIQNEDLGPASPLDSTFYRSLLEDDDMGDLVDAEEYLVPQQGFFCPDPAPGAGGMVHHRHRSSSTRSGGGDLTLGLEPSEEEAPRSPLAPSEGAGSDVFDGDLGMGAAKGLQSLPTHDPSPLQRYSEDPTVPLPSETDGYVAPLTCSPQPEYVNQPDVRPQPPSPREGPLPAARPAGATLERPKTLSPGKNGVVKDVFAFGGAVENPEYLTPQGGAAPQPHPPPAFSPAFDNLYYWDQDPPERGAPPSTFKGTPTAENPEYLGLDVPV
Method in brief: as §1

BT-474 = assay: Proliferation inhibition assay in vitro, BT-474 (CellTiter-Glo); format: cell-based; conditions: Homo sapiens, 72 hours, read-out: IC50(nM) cell BT-474
Method in brief: (§2)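 Cells were seeded at 8.8×10^4 cells/mL for BT-474 or 6.6×10^4 cells/mL for N87 and grown overnight. Compound was added at 9 concentrations in duplicate for 72 h at 37 °C, 5% CO2. Viability was measured by CellTiter-Glo.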

N87 = assay: Proliferation inhibition assay in vitro, N87 (CellTiter-Glo); format: cell-based; conditions: Homo sapiens; 72 hours; read-out: IC50(nM) cell N87
Method in brief: as §2

Sequence of EGFR kinase (P00533 25-1210): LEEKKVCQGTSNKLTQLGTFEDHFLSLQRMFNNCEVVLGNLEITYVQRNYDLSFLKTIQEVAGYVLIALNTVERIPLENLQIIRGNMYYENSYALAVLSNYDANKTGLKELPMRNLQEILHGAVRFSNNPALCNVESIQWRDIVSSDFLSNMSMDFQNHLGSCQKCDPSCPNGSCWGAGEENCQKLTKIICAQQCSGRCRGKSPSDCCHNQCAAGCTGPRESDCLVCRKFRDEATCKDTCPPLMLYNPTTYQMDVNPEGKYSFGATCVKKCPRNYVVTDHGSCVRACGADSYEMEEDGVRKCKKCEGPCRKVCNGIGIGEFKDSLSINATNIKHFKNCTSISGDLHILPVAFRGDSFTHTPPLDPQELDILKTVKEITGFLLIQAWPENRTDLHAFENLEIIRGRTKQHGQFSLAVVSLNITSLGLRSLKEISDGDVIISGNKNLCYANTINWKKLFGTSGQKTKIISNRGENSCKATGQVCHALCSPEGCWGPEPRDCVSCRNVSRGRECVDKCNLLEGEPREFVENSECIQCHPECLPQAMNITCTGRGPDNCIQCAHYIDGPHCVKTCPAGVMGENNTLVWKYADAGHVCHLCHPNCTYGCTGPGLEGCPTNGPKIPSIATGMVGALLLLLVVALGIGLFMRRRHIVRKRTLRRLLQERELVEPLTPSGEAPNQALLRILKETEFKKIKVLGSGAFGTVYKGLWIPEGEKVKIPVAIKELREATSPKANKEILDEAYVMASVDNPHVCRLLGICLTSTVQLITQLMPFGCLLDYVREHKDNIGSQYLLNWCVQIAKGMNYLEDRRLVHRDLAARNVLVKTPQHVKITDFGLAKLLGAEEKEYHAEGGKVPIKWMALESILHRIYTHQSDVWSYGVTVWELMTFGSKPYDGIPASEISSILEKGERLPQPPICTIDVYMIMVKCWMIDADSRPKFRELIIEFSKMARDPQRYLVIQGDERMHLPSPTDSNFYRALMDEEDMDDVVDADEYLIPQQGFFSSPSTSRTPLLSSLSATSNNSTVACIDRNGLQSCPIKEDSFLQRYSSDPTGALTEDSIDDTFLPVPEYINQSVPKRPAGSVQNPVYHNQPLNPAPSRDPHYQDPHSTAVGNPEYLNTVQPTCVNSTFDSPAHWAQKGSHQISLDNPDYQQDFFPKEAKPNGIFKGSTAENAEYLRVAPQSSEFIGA

Question: How did the IC50 (EGFR kinase) turn out when `Cc1cc(Nc2ncnc3ccc(NC4=NC(C)(C)CO4)cc23)ccc1Oc1cc2nncn2cn1` [Embodiment 4, N^4-(4-([1,2,4]triazolo[4,3-c]pyrimidin-7-yloxy)-3-methylphenyl)-N^6-(4,4-dimethyl-4,5-dihydrooxazol-2-yl)quinazoline-4,6-diamine] was run?
Answer: 44.3 nM

Question: What about the IC50 (ErbB2 kinase) of the same compound?
Answer: 2.4 nM

Question: And the IC50 (BT-474)?
Answer: 19.7 nM

Question: And the IC50 (N87)?
Answer: 23 nM
